According to patent US12370235B2, “Synthetic, non-natural antimicrobial peptides inspired by Staphylococcus auricularis delta toxin” (University of Saskatchewan, priority 2021, dated 2025):
Ends that are not written are not given here.

Legend:
C. albicans MYA-2876 = test: MIC, YPD broth; assay type: cell-based, Candida albicans; conditions: Table 8
Outline: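 Minimum inhibitory concentrations against Candida albicans were determined in YPD broth (10 g/L yeast extract, 20 g/L peptone, 20 g/L dextrose) using peptides of 95% purity. A 180 μl volume of diluted yeast was combined with 20 μl of peptide in a 2-fold dilution series in 96-well plates, with sterile water as control, then incubated standing overnight at 37° C.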

[1] = tested on: S. aureus ATCC BAA-44 (MRSA SCCmec type I); test: MIC, broth dilution; assay type: cell-based, Staphylococcus aureus; conditions: Table 5; STIP3 variants, highest concentration 100 μg/mL
Outline: (§1)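 MIC defined as the lowest peptide level giving no growth after overnight standing incubation at 37° C. Bacteria at OD 6×10^−4 in cation-adjusted MH broth met 2-fold serial peptide dilutions; peptide purity 95%.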

[2] = tested on: S. aureus ATCC 33592 (MRSA SCCmec type III); test: MIC, broth dilution; assay type: cell-based, Staphylococcus aureus; conditions: Table 5; STIP3 variants, highest concentration 100 μg/mL
Outline: as §1

[3] = tested on: S. aureus ATCC BAA-2094 (MRSA SCCmec type V); test: MIC, broth dilution; assay type: cell-based, Staphylococcus aureus; conditions: Table 5; STIP3 variants, highest concentration 100 μg/mL
Outline: as §1

S. aureus ATCC 29213 = test: MIC, broth dilution; assay type: cell-based, Staphylococcus aureus; conditions: Table 5; STIP3 variants, highest concentration 100 μg/mL
Outline: as §1

[4] = tested on: S. aureus ATCC BAA-42 (MRSA SCCmec type VI); test: MIC, broth dilution; assay type: cell-based, Staphylococcus aureus; conditions: Table 5; STIP3 variants, highest concentration 100 μg/mL
Outline: as §1

[5] = tested on: S. aureus ATCC BAA-1683 (MRSA SCCmec type IV); test: MIC, broth dilution; assay type: cell-based, Staphylococcus aureus; conditions: Table 5; STIP3 variants, highest concentration 100 μg/mL
Outline: as §1

[6] = tested on: S. aureus ATCC BAA-41 (MRSA SCCmec type II); test: MIC, broth dilution; assay type: cell-based, Staphylococcus aureus; conditions: Table 5; STIP3 variants, highest concentration 100 μg/mL
Outline: as §1

[7] = tested on: S. aureus ATCC BAA-2313 (MRSA SCCmec type XI); test: MIC, broth dilution; assay type: cell-based, Staphylococcus aureus; conditions: Table 5; STIP3 variants, highest concentration 100 μg/mL
Outline: as §1

[8] = tested on: Mannheimia haemolytica ATCC 33393; test: MIC, broth dilution; assay type: cell-based; conditions: Table 11; highest concentration 25 μg/mL
Outline: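 Peptides (95% purity) in 2-fold dilution series were mixed with M. haemolytica diluted to OD 6×10^−4 in cation-adjusted Mueller Hinton broth and incubated standing overnight at 37 °C. MIC was the lowest concentration with no visible growth.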

[9] = Circular dichroism spectroscopy; assay type: physicochemical; conditions: CD, 50% (v/v) TFE
Source text: The δ-toxins and the PSMs are characterized as α-helical peptides that form amyloid fibers^48. Although the propensity of individual peptides to form amyloids is correlated to their cytotoxicity^49, the amyloid form is not directly implicated in cell membrane disruption^50. […] CD spectroscopy was used to investigate the secondary structure of a subset of peptides within the collection (FIG. 4A, Table 5). The STIP variants adopted α-helical forms in 50% (v/v) trifluoroethanol (TFE), though unlike the full-length S. auricularis δ-toxin, they were unstructured in water. […] Specifically, peptides characterized by the greatest and least α-helical content in TFE had MICs above the highest tested threshold.
Circular dichroism spectroscopy. Peptides were dissolved in water at concentrations between 0.3 and 0.5 mg/mL. CD spectra were recorded on an Applied Photophysics Chirascan Plus CD spectrophotometer at room temperature in a 0.1 cm path-length quartz cuvette. Spectra were recorded from 180 to 260 nm.

[10] = tested on: Candida duobushaemulonii AR 391; test: MIC, YPD broth, CDC and FDA AR Candida isolate panel; assay type: cell-based
Outline: (§2)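 Using peptides at 95% purity, yeast suspensions adjusted to an optical density of […] received two-fold diluted peptide, were held static overnight at 37° C, and were compared against sterile-water controls.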

[11] = tested on: Candida duobushaemulonii AR 394; test: as above; assay type: cell-based
Outline: as §2

Candida krusei AR 397 = test: as above; assay type: cell-based
Outline: as §2

[12] = tested on: Saccharomyces cerevisiae AR 399; test: as above; assay type: cell-based
Outline: as §2

[13] = tested on: Candida duobushaemulonii AR 392; test: as above; assay type: cell-based
Outline: as §2

[14] = tested on: Candida lusitaniae AR 398; test: as above; assay type: cell-based
Outline: as §2

Kodamae ohmeri AR 396 = test: as above; assay type: cell-based
Outline: as §2

[15] = tested on: Candida haemulonii AR 395; test: as above; assay type: cell-based; conditions: Table 9 below the line: only 200 or 100 μg/mL tested; values reported as 100 are ≤100 μg/mL
Outline: as §2

[16] = tested on: Saccharomyces cerevisiae AR 400; test: as above; assay type: cell-based
Outline: as §2

[17] = tested on: Candida haemulonii AR 393; test: as above; assay type: cell-based; conditions: Table 9 below the line: only 200 or 100 μg/mL tested; values reported as 100 are ≤100 μg/mL
Outline: as §2

C. albicans Y537 = test: MIC, YPD broth; assay type: cell-based, Candida albicans; conditions: Table 8
[18] = Table 9 below the line: only 200 or 100 μg/mL tested, values reported as 100 are ≤100 μg/mL
[19] = Table 9 top part: titrations from 1.56 to 100 μg/mL

Sequence | MIC C. albicans MYA-2876 (C. albicans MYA-2876) | MIC S. aureus ATCC BAA 44 (I) [1] | MIC S. aureus ATCC 33592 (III) [2] | MIC S. aureus ATCC BAA 2094 (V) [3] | MIC S. aureus ATCC 29213 (S. aureus ATCC 29213) | MIC S. aureus ATCC BAA 42 (VI) [4] | MIC S. aureus ATCC BAA 1683 (IV) [5] | MIC S. aureus ATCC BAA 41 (II) [6] | MIC S. aureus ATCC BAA 2313 (XI) [7] | MIC (μg/mL) M. haemolytica [8] | MIC (μg/mL) Candida duobushaemulonii AR 391 [10, 18] | MIC (μg/mL) Candida duobushaemulonii AR 394 [11, 18] | MIC (μg/mL) Candida krusei AR 397 (Candida krusei AR 397; [18]) | MIC (μg/mL) Saccharomyces cerevisiae AR 399 [12, 18] | MIC (μg/mL) Candida duobushaemulonii AR 392 [13, 18] | MIC (μg/mL) Candida lusitaniae AR 398 [14, 18] | MIC (μg/mL) Kodamae ohmeri AR 396 (Kodamae ohmeri AR 396; [18]) | MIC (μg/mL) Candida haemulonii AR 395 [15] | MIC (μg/mL) Saccharomyces cerevisiae AR 400 [16, 18] | MIC (μg/mL) Candida haemulonii AR 393 [17] | also measured
TVKGLVKWILATVKKFA [STIP3-16, TVKGLVKWILATVKKFA] | 12.5 µg/mL | 100 µg/mL | 50 µg/mL | 100 µg/mL | 100 µg/mL | 50 µg/mL | > (no inhibition was observed at the highest concentration of peptide tested: 100 μg/mL for the STIP3 variants) | 50 µg/mL | 100 µg/mL | 6.25 µg/mL | > (values below the line were determined using two concentrations of peptide 200 or 100 μg/mL) | > (values below the line were determined using two concentrations of peptide 200 or 100 μg/mL) | ≤ 100 µg/mL | ≤ 100 µg/mL | > (values below the line were determined using two concentrations of peptide 200 or 100 μg/mL) | ≤ 100 µg/mL | ≤ 100 µg/mL | > (values below the line were determined using two concentrations of peptide 200 or 100 μg/mL) | ≤ 100 µg/mL | > (values below the line were determined using two concentrations of peptide 200 or 100 μg/mL) | α helicity (%) [9]: 45%
TVKGLVKWILNVVKKFA [STIP3-14, TVKGLVKWILNVVKKFA] | 12.5 µg/mL | 25 µg/mL | 12.5 µg/mL | 50 µg/mL | 25 µg/mL | 25 µg/mL | 25 µg/mL | 25 µg/mL | 12.5 µg/mL |  |  |  |  |  |  |  |  |  |  |  | MIC C. albicans Y537 (C. albicans Y537): 50 µg/mL; α helicity (%) [9]: 64%; MIC (μg/mL) Candida duobushaemulonii AR 391 [10, 19]: 50 µg/mL; MIC (μg/mL) Candida duobushaemulonii AR 394 [11, 19]: 100 µg/mL; MIC (μg/mL) Candida krusei AR 397 (Candida krusei AR 397; [19]): 12.5 µg/mL; MIC (μg/mL) Saccharomyces cerevisiae AR 399 [12, 19]: 25 µg/mL; MIC (μg/mL) Candida duobushaemulonii AR 392 [13, 19]: 50 µg/mL; MIC (μg/mL) Candida lusitaniae AR 398 [14, 19]: 6.25 µg/mL; MIC (μg/mL) Kodamae ohmeri AR 396 (Kodamae ohmeri AR 396; [19]): 25 µg/mL; MIC (μg/mL) Saccharomyces cerevisiae AR 400 [16, 19]: 6.25 µg/mL
TVKKLVKWILKTVKKFA [STIP3-18, TVKKLVKWILKTVKKFA] | 50 µg/mL | 100 µg/mL | 100 µg/mL | 100 µg/mL | 100 µg/mL | > (no inhibition was observed at the highest concentration of peptide tested: 100 μg/mL for the STIP3 variants) | > (no inhibition was observed at the highest concentration of peptide tested: 100 μg/mL for the STIP3 variants) | 100 µg/mL | > (no inhibition was observed at the highest concentration of peptide tested: 100 μg/mL for the STIP3 variants) | 6.25 µg/mL | ≤ 100 µg/mL | ≤ 100 µg/mL | ≤ 100 µg/mL | ≤ 100 µg/mL | ≤ 100 µg/mL | ≤ 100 µg/mL | > (values below the line were determined using two concentrations of peptide 200 or 100 μg/mL) | > (values below the line were determined using two concentrations of peptide 200 or 100 μg/mL) | ≤ 100 µg/mL | > (values below the line were determined using two concentrations of peptide 200 or 100 μg/mL) | MIC C. albicans Y537 (C. albicans Y537): > (> symbol indicates that no inhibition was observed at the highest concentration of peptide tested: 100 μg/mL)
TVRALVKWILRTVAKFA [STIP3-20, TVRALVKWILRTVAKFA] | > (> symbol indicates that no inhibition was observed at the highest concentration of peptide tested: 100 μg/mL) | 25 µg/mL | 25 µg/mL | 25 µg/mL | 25 µg/mL | 25 µg/mL | 25 µg/mL | 12.5 µg/mL | 50 µg/mL | 25 µg/mL | > (values below the line were determined using two concentrations of peptide 200 or 100 μg/mL) | > (values below the line were determined using two concentrations of peptide 200 or 100 μg/mL) | > (values below the line were determined using two concentrations of peptide 200 or 100 μg/mL) | > (values below the line were determined using two concentrations of peptide 200 or 100 μg/mL) | > (values below the line were determined using two concentrations of peptide 200 or 100 μg/mL) | > (values below the line were determined using two concentrations of peptide 200 or 100 μg/mL) | > (values below the line were determined using two concentrations of peptide 200 or 100 μg/mL) | > (values below the line were determined using two concentrations of peptide 200 or 100 μg/mL) | 200 µg/mL | > (values below the line were determined using two concentrations of peptide 200 or 100 μg/mL) | MIC C. albicans Y537 (C. albicans Y537): > (> symbol indicates that no inhibition was observed at the highest concentration of peptide tested: 100 μg/mL)
